Test results from patent US9051310B2, “Nicotinamide derivative or salt thereof” (FUJIFILM Corporation, priority 2011, dated 2015).

Key:
[1] = target: T1, glutathione S-transferase (GST)-linked full-length human Syk protein (Homo sapiens, UniProt P43405); assay: Syk enzyme assay; format: biochemical; settings: 0.83 nM Syk, time-resolved fluorescence; read-out: IC50 of Syk-inhibitory activity
T1 construct: glutathione S-transferase (GST)-linked full-length human Syk protein; purchased Carna Biosciences; host or cells: Baculovirus expression system
Method in brief: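 Phosphotyrosine on a biotin-peptide substrate (0.5 μM) was read by time-resolved fluorescence at 615 and 665 nm with Eu-anti-pTyr antibody and APC-streptavidin after 1 h EDTA stop.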

[2] = test system: THP-1 cells (phagocytosis of opsonized Escherichia coli); assay: Antibody-dependent phagocytosis assay; format: cell-based; settings: Homo sapiens; IFNγ differentiated THP-1 cells, opsonized pHrodo Escherichia coli, 3 hours; read-out: IC50 upon phagocytosis inhibition
Description: THP-1 cells (2×10^5 cells/ml), which were human monocytoid cells, were cultured in the presence of 10 ng/ml IFNγ for 2 days, and they were induced to differentiate into macrophage-like cells. The differentiation-induced THP-1 cells were recovered, and the cells (5×10^4 cells/well) were then allowed to react with a predetermined concentration of test compound at room temperature for 30 minutes. Thereafter, Escherichia coli (Life Technologies) labeled with a pH-sensitive dye (pHrodo) was subjected to opsonization using an anti-Escherichia coli antibody (Life Technologies). Then, the resultant was added to the THP-1 cells obtained above, followed by incubation at 37° C. for 3 hours. Opsonized Escherichia coli and cell-permeable fluorescent dye (Calcein AM) were simultaneously added thereto, followed by quantitative determination of phagocytosis of opsonized Escherichia coli in viable cells using an IN Cell Analyzer.

[3] = test system: THP-1 cells (TNFα secretion on human IgG-coated plate); assay: TNFα generation assay; format: cell-based; settings: IFN-γ differentiated THP-1 cells, 7 hours, AlphaLISA, read-out: IC50 of TNFα generation inhibitory activity
Method in brief: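 THP-1 cells were differentiated with 10 ng/ml IFN-γ for 2 days, then preincubated with compound for 30 min at room temperature. They were then plated at 5×10^4 cells/well on plates coated with human IgG (10 μg/ml). TNFα secreted over 7 h of culture was quantified by AlphaLISA.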

| IC50 [1] [nM] | IC50 [2] [nM] | IC50 [3] [nM] | SMILES |
| --- | --- | --- | --- |
| 10 to 50 | 1000 to 3000 | – | COc1ncc(Nc2nc(N[C@H](C3CCC3)[C@H](C)N)c(F)cc2C(N)=O)cc1-n1ccnn1 [Example 2-166, 6-(((1R,2S)-2-amino-1-cyclobutylpropyl)amino)-5-fluoro-2-((6-methoxy-5-(1H-1,2,3-triazol-1-yl)pyridin-3-yl)amino)nicotinamide] |
| < 10 | < 1000 | – | C[C@H](N)[C@H](Nc1nc(Nc2ccc3ncccc3c2)c(C(N)=O)cc1F)c1ccccc1 [Example 2-312, 6-(((1R,2S)-2-amino-1-phenylpropyl)amino)-5-fluoro-2-(quinolin-6-ylamino)nicotinamide] |
| < 10 | 1000 to 3000 | – | CCC[C@@H](Nc1nc(Nc2cncc3c2cnn3CC(F)F)c(C(N)=O)cc1F)[C@H](C)N [Example 2-397, 6-(((2S,3R)-2-aminohexan-3-yl)amino)-2-((1-(2,2-difluoroethyl)-1H-pyrazolo[3,4-c]pyridin-4-yl)amino)-5-fluoronicotinamide] |
| 10 to 50 | < 1000 | – | COc1ccc([C@@H](Nc2nc(Nc3cnc(C)c(-n4nccn4)c3)c(C(N)=O)cc2F)[C@H](C)N)cc1 [Example 2-338, 6-(((1R,2S)-2-amino-1-(4-methoxyphenyl)propyl)amino)-5-fluoro-2-((6-methyl-5-(2H-1,2,3-triazol-2-yl)pyridin-3-yl)amino)nicotinamide] |
| < 10 | < 1000 | – | Cn1nc(OC(F)F)c2cc(Nc3nc(N[C@@H]4CCCC[C@@H]4N)c(F)cc3C(N)=O)ccc21 [Example 2-169, 6-(((1R,2S)-2-aminocyclohexyl)amino)-2-((3-(difluoromethoxy)-1-methyl-1H-indazol-5-yl)amino)-5-fluoronicotinamide] |
| < 10 | 1000 to 3000 | – | COCCn1nc(OC(F)F)c2cc(Nc3nc(N[C@H](COC)[C@H](C)N)c(F)cc3C(N)=O)ccc21 [Example 2-178, 6-(((2S,3S)-3-amino-1-methoxybutan-2-yl)amino)-2-((3-(difluoromethoxy)-1-(2-methoxyethyl)-1H-indazol-5-yl)amino)-5-fluoronicotinamide] |
| 10 to 50 | < 1000 | – | CC[C@H](N)[C@@H](CC)Nc1nc(Nc2ccc3c(c2)c(OC)nn3C)c(C(N)=O)cc1F [Example 2-85, 6-(((3R,4S)-4-aminohexan-3-yl)amino)-5-fluoro-2-((3-methoxy-1-methyl-1H-indazol-5-yl)amino)nicotinamide] |
| < 10 | 1000 to 3000 | – | CCC[C@@H](Nc1nc(Nc2ccc3c(c2)c(OC(F)F)nn3C)c(C(N)=O)cc1F)[C@H](C)N [Example 2-349, 6-(((2S,3R)-2-aminohexan-3-yl)amino)-2-((3-(difluoromethoxy)-1-methyl-1H-indazol-5-yl)amino)-5-fluoronicotinamide] |
| 10 to 50 | < 1000 | – | NC(=O)c1cc(F)c(N[C@@H]2CCCC[C@@H]2N)nc1Nc1cnc(OC(F)F)c(-n2nccn2)c1 [Example 2-238, 6-(((1R,2S)-2-aminocyclohexyl)amino)-2-((6-(difluoromethoxy)-5-(2H-1,2,3-triazol-2-yl)pyridin-3-yl)amino)-5-fluoronicotinamide] |
| < 10 | 1000 to 3000 | – | CC(C)C[C@@H](Nc1nc(Nc2cnc3c(c2)c(N(C)C)nn3C)c(C(N)=O)cc1F)[C@H](C)N [Example 2-292, 6-(((2S,3R)-2-amino-5-methylhexan-3-yl)amino)-2-((3-(dimethylamino)-1-methyl-1H-pyrazolo[3,4-b]pyridin-5-yl)amino)-5-fluoronicotinamide] |
| 10 to 50 | 1000 to 3000 | – | CC(C)C[C@@H](Nc1nc(Nc2cc(N3CCOCC3)ncc2F)c(C(N)=O)cc1F)[C@H](C)N [Example 2-236, 6-(((2S,3R)-2-amino-5-methylhexan-3-yl)amino)-5-fluoro-2-((5-fluoro-2-morpholinopyridin-4-yl)amino)nicotinamide] |
| 10 to 50 | 1000 to 3000 | – | COCCn1nc(OC)c2cc(Nc3nc(N[C@H](COC)[C@H](C)N)c(F)cc3C(N)=O)ccc21 [Example 2-128, 6-(((2S,3S)-3-amino-1-methoxybutan-2-yl)amino)-5-fluoro-2-((3-methoxy-1-(2-methoxyethyl)-1H-indazol-5-yl)amino)nicotinamide] |
| 10 to 50 | < 1000 | – | CCOC[C@@H](Nc1nc(Nc2cncc3c2cnn3CC)c(C(N)=O)cc1F)[C@H](C)N [Example 2-324, 6-(((2S,3S)-3-amino-1-ethoxybutan-2-yl)amino)-2-((1-ethyl-1H-pyrazolo[3,4-c]pyridin-4-yl)amino)-5-fluoronicotinamide] |
| 10 to 50 | 1000 to 3000 | – | CCn1ncc2c(Nc3nc(N[C@H](COC)[C@H](C)N)c(F)cc3C(N)=O)cncc21 [Example 2-323, 6-(((2S,3S)-3-amino-1-methoxybutan-2-yl)amino)-2-((1-ethyl-1H-pyrazolo[3,4-c]pyridin-4-yl)amino)-5-fluoronicotinamide] |
| < 10 | 3000 to 6000 | – | NC(=O)c1cc(F)c(N[C@@H]2CCOC[C@@H]2N)nc1Nc1cncc2c1cnn2CC(F)F [Example 2-394, 6-(((3R,4R)-3-aminotetrahydro-2H-pyran-4-yl)amino)-2-((1-(2,2-difluoroethyl)-1H-pyrazolo[3,4-c]pyridin-4-yl)amino)-5-fluoronicotinamide] |
| – | < 1000 | – | NC[C@@H](Cc1ccccc1)Nc1nc(Nc2ccc(N3CCOCC3)nc2)c(C(N)=O)cc1F [Example 2-420, (R)-6-((1-amino-3-phenylpropan-2-yl)amino)-5-fluoro-2-((6-morpholinopyridin-3-yl)amino)nicotinamide] |
| < 10 | – | 65 to 130 | CC[C@@H](Nc1nc(Nc2cccc(-n3ccnn3)c2)c(C(N)=O)cc1F)[C@H](C)N [Example 2-476, 2-((3-(1H-1,2,3-triazol-1-yl)phenyl)amino)-6-(((2S,3R)-2-aminopentan-3-yl)amino)-5-fluoronicotinamide] |
| 10 to 50 | – | 65 to 130 | CCn1ncc2cc(Nc3nc(N[C@H](C)[C@@H](N)C4CC4)c(F)cc3C(N)=O)ccc21 [Example 2-230, 6-(((1S,2R)-1-amino-1-cyclopropylpropan-2-yl)amino)-2-((1-ethyl-1H-indazol-1-5-yl)amino)-5-fluoronicotinamide] |
| < 10 | – | 130 to 200 | COCCn1nc(C)c2cc(Nc3nc(N[C@@H]4CCOC[C@@H]4N)c(F)cc3C(N)=O)ccc21 [Example 2-327, 6-(((3R,4R)-3-aminotetrahydro-2H-pyran-4-yl)amino)-5-fluoro-2-((1-(2-methoxyethyl)-3-methyl-1H-indazol-5-yl)amino)nicotinamide] |
| < 10 | – | 65 to 130 | C[C@H](N)[C@H](Nc1nc(Nc2cccc(-n3nccn3)c2)c(C(N)=O)cc1F)C1CC1 [Example 2-479, 2-((3-(2H-1,2,3-triazol-2-yl)phenyl)amino)-6-(((1R,2S)-2-amino-1-cyclopropylpropyl)amino)-5-fluoronicotinamide] |
| 10 to 50 | – | 130 to 200 | Cc1ncc(Nc2nc(N[C@H](C3CC3)[C@H](C)N)c(F)cc2C(N)=O)cc1F [Example 2-220, 6-(((1R,2S)-2-amino-1-cyclopropylpropyl)amino)-5-fluoro-2-((5-fluoro-6-methylpyridin-3-yl)amino)nicotinamide] |
